According to patent US7294330B2, “β-glucuronidase inhibitors for use in deodorants and antiperspirants” (priority 2001, dated 2007):
Counter-ions that a name gives are not always drawn. Like-named read-outs stand apart in the source and are kept apart here.

Target: T1, β-glucuronidase (Sigma) (EC 3.2.1.31) from E. coli (Escherichia coli, UniProt P05804)
T1 construct: purchased Sigma G-7396
Assay: biochemical
Conditions: for remaining activity at 0.001 %: test concentration 0.001 %
Experimental: Investigation of the inhibitory action of the β-glucuronidase inhibitors (in vitro)
Since the skin-relevant β-glucuronidase was not available, a commercially available β-glucuronidase (Sigma) (EC 3.2.1.31) from E. coli served as the model enzyme for testing the inhibitory action of the inhibitors used according to the invention. The tests were carried out with the β-glucuronidase enzyme assay product no. G-7396 from Sigma in accordance with the instructions in the Sigma Quality Control Test Procedure datasheet.
For the evaluation, the phenolphthalein formed from the substrate phenolphthalein glucuronide by β-glucuronidase was determined spectrophotometrically (λ=540 nm).
The reaction solutions of 300 μl, which were temperature-controlled at a reaction temperature of 37° C., comprised 30 mM potassium phosphate buffer with 0.04% of albumin (pH 6.8), 0.5 mM phenolphthalein glucuronide (substrate) and a starting concentration of 40 U/ml (=12 U) of β-glucuronidase. The unit U of the enzyme activity was defined such that 1 U of β-glucuronidase hydrolyses 1.0 μmol of phenolphthalein glucuronide per minute at pH 6.8 and 37° C.
The reaction was started by addition of the enzyme and incubation was carried out for 30 min at 37° C. The reaction was then stopped with 3.5 times the volume of a 200 mM glycine solution of pH 10.4. In the photometric end point determination, the amount of phenolphthalein liberated was determined at the wavelength of λ=540 nm and at 37° C.
In batches with inhibitor, 0.2 ml of the appropriately concentrated reagents and 0.1 ml of the inhibitor, dissolved in water, were mixed. In each case a concentration series of the inhibitor was tested here. The absorption (A) here is a measure of the activity of the enzyme (ΔA). The activity of the enzyme in the absence of an inhibitor (ΔA1) was set at 100% as the reference. Under analogous conditions, the activities were determined in the presence of an inhibitor (ΔA2). The inhibitory action of the inhibitor was shown as the residual activity of the enzyme activity, calculated in accordance with the equation 100%−(ΔA2)/(ΔA1)%.

[1] = test concentration 0.01 %, 30 min, 37° C., pH 6.8
[2] = test concentration 0.10 %, 30 min, 37° C., pH 6.8
[3] = test concentration 1.00 %, 30 min, 37° C., pH 6.8
[4] = 0.5 h, concentration in the test 0.01 % (head of grid column 4, first sub-table), 30 min, 37° C., pH 6.8, read-out: Residual activity
[5] = test concentration 0.50 %, 30 min, 37° C., pH 6.8
[6] = 0.5 h, test concentration 0.01 %, 30 min, 37° C., pH 6.8, read-out: Residual activity
[7] = 0.5 h, test concentration 0.10 %, 30 min, 37° C., pH 6.8, read-out: Residual activity
[8] = 0.5 h, test concentration 1.00 %, 30 min, 37° C., pH 6.8, read-out: Residual activity
[9] = 0.5 h, 30 min, 37° C., pH 6.8, read-out: Residual activity
[10] = test concentration 2.00 %, 30 min, 37° C., pH 6.8
[11] = test concentration 0.08 %, 30 min, 37° C., pH 6.8
[12] = 0.5 h, pH 6.8, read-out: Residual activity

T1 sequence (P05804 whole entry): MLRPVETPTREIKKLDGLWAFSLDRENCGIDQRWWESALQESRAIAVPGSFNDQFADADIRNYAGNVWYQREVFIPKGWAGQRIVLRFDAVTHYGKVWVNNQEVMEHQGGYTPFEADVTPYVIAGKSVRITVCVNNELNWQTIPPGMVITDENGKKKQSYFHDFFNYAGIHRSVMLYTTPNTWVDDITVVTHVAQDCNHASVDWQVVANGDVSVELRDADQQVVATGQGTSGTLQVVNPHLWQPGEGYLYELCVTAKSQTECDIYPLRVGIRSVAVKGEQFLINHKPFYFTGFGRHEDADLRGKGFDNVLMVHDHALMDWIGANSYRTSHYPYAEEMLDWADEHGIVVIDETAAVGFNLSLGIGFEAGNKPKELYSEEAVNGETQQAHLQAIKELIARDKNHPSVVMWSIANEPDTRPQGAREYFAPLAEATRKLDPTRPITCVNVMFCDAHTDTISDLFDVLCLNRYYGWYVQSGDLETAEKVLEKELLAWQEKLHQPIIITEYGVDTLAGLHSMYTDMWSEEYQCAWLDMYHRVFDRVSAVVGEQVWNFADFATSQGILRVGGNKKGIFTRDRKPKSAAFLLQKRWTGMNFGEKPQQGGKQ

`O=C1CC[C@@H](C(=O)[O-])N1.O=C1CC[C@@H](C(=O)[O-])N1.[Zn+2]` [Zincidone] showed a Residual activity [1] of 79%, a Residual activity [2] of 8% and a Residual activity [3] of 3%.
Work on `C=C(C)C1CCC(C)CC1O` (stereo not shown) [Coolact P, 5-methyl-2-(1-methylvinyl)cyclohexan-1-ol] yielded a remaining activity at 0.0005 % (0.5 h, concentration in the test 0.0005 % (head of grid column 3, first sub-table), 30 min, 37° C., pH 6.8, read-out: Residual activity) of 184% and a remaining activity at 0.01 % [4] of 38%.
For `C=CCc1ccc(O[C@@H]2O[C@H](CO)[C@@H](O)[C@H](O)[C@H]2O)c(OC)c1` [Eugenyl Glucoside, 2-methoxy-4-(2-propenyl)phenyl β-D-glucoside], the Residual activity [2] was 53% and the Residual activity [5] was 12%.
Compound `OCCc1ccccc1` [Phenylethyl alcohol, 2-phenylethyl alcohol] has a remaining activity at 0.01 % [6] of 121%, a remaining activity at 0.1 % [7] of 227% and a remaining activity at 1 % [8] of 49%.
Compound `CC(O)C(=O)[O-].[K+]` (stereo not shown) [Purasal P Hipure 60, Potassium lactate] has a Residual activity [1] of 96%, a Residual activity [2] of 88% and a Residual activity [3] of 52%.
In the case of Copper gluconate [Givobio GCU], the Residual activity [1] was 81% and the Residual activity [2] was 50%.
`CC(C)c1cccc(=O)c(O)c1` [Hinokitiol (DMSO), 2-hydroxy-4-isopropyl-2,4,6-cycloheptatrien-1-one] was tested, and the remaining activity at 0.001 % [9] was 112%, the remaining activity at 0.01 % [6] was 156% and the remaining activity at 0.1 % [7] was 30%. For the same compound, the remaining activity at 1 % [8] was 2%.
For `C[C@@H]1O[C@@H](O[C@H]2[C@H](Oc3cc(O)c4c(c3)O[C@H](c3ccc(O)cc3)CC4=O)O[C@H](CO)[C@@H](O)[C@@H]2O)[C@H](O)[C@H](O)[C@H]1O` [Naringin, naringenin 7-rhamnoglucoside], the remaining activity at 0.001 % [9] was 103%, the remaining activity at 0.01 % [6] was 94% and the remaining activity at 0.1 % [7] was 47%.
For `O=C([O-])CN(CCN(CC(=O)[O-])CC(=O)[O-])CC(=O)[O-].[Na+].[Na+].[Na+].[Na+]` [Trilon B, EDTA-4 Na, reference compound], the Residual activity [1] was 108%, the Residual activity [2] was 86% and the Residual activity [5] was 57%. For the same compound, the Residual activity [3] was 51% and the Residual activity [10] was 43%.
Work on `O=C([O-])C(O)C(O)C(O)C(O)C(O)CO.O=C([O-])C(O)C(O)C(O)C(O)C(O)CO.[Mg+2]` (stereo not shown) [Magnesium glucoheptonate, magnesium glucoheptonate] yielded a Residual activity [1] of 55% and a Residual activity [2] of 50%.
Compound `O=P(O)(O)O[C@H]1[C@H](OP(=O)(O)O)[C@@H](OP(=O)(O)O)[C@H](OP(=O)(O)O)[C@@H](OP(=O)(O)O)[C@H]1OP(=O)(O)O` [Phytic acid, myo-inositol-hexaphosphoric acid] has a remaining activity at 0.01 % [6] of 90%, a remaining activity at 0.05 % (0.5 h, test concentration 0.05 %, 30 min, 37° C., pH 6.8, read-out: Residual activity) of 86% and a remaining activity at 0.1 % [7] of 71%. For the same compound, the remaining activity at 0.38 % (0.5 h, test concentration 0.38 %, 30 min, 37° C., pH 6.8, read-out: Residual activity) was 68% and the remaining activity at 1 % [8] was 16%.
For `O=C(O)C(O)c1ccc(O)cc1` (stereo not shown) [Dermosoft HMA, p-Hydroxymandelic acid sodium salt], the remaining activity at 0.01 % [6] was 110%, the remaining activity at 0.1 % [7] was 99% and the remaining activity at 1 % [8] was 56%.
`CC(O)(P(=O)(O)O)P(=O)(O)O` [Dequest 2016D, 1-Hydroxyethane-1,1-diphosphonic acid tetrasodium salt] showed a remaining activity at 8e-05 % (0.5 h, concentration in the test 0.00008 % (head of grid column 1, first sub-table), 30 min, 37° C., pH 6.8, read-out: Residual activity) of 99%, a remaining activity at 0.0008 % (0.5 h, concentration in the test 0.0008 % (head of grid column 2, first sub-table), 30 min, 37° C., pH 6.8, read-out: Residual activity) of 95% and a remaining activity at 0.01 % [4] of 52%.
With `O=C([O-])CN(CC(=O)[O-])CC(=O)[O-].[Na+].[Na+].[Na+]` [Trilon A, Nitrilotriacetic acid 3 Na, reference compound] the Residual activity [1] was 100%, the Residual activity [2] was 90% and the Residual activity [5] was 71%. For the same compound, the Residual activity [3] was 59% and the Residual activity [10] was 52%.
For `O.O.O.O.O.[Cl][Cu][Cl]` [CuCl2 × 5H2O, CuCl2·5 H2O], the Residual activity (test concentration 0.000005 %, 30 min, 37° C., pH 6.8) was 105%, the Residual activity (test concentration 0.00005 %, 30 min, 37° C., pH 6.8) was 39% and the Residual activity (test concentration 0.00025 %, 30 min, 37° C., pH 6.8) was 7%.
For zinc gluconate, the Residual activity [1] was 88%, the Residual activity [2] was 54% and the Residual activity (test concentration 0.25 %, 30 min, 37° C., pH 6.8) was 3%. It also gave a Residual activity [3] of 1%.
`O=C([O-])CC(O)(CC(=O)[O-])C(=O)[O-].[K+].[K+].[K+]` [Tripotassium citrate, tripotassium citrate] showed a Residual activity [1] of 97%, a Residual activity [2] of 86% and a Residual activity [3] of 47%.
`CC(=O)CCc1ccc(O[C@@H]2O[C@H](CO)[C@@H](O)[C@H](O)[C@H]2O)cc1` [Raspberry ketone glucoside, 4-(γ-ketobutyl)phenyl β-D-glucoside] gave a Residual activity [5] of 125% and a Residual activity [3] of 49%.
In the case of `O=C(/C=C/c1ccc(O)c(O)c1)O[C@H](Cc1ccc(O)c(O)c1)C(=O)O` [Rosemary acid, rosemary acid], the Residual activity (test concentration 0.0008 %, 30 min, 37° C., pH 6.8) was 48%, the Residual activity (test concentration 0.008 %, 30 min, 37° C., pH 6.8) was 15% and the Residual activity [11] was 19%. The Residual activity (test concentration 8 · 10^−5 %, 30 min, 37° C., pH 6.8) was 86%.
`CC(C(=O)[O-])N(CC(=O)[O-])CC(=O)[O-].[Na+].[Na+].[Na+]` (stereo not shown) [Trilon M, Methylglycinediacetic acid trisodium salt] was tested, and the Residual activity [1] was 99%, the Residual activity [2] was 91% and the Residual activity [3] was 55%.
With `NCC(=O)O` [Glycine, glycine] the remaining activity at 0.01 % [12] was 95%, the remaining activity at 0.1 % [12] was 91% and the remaining activity at 0.5 % [12] was 70%. For the same compound, the remaining activity at 1 % [12] was 52% and the remaining activity at 2 % [12] was 32%.
`CC(O)C(=O)[O-].CC(O)C(=O)[O-].[Zn+2]` (stereo not shown) [Zinc lactate, zinc lactate] showed a Residual activity (test concentration 0.005 %, 30 min, 37° C., pH 6.8) of 77%, a Residual activity (test concentration 0.05 %, 30 min, 37° C., pH 6.8) of 55% and a Residual activity [11] of 30%. For the same compound, the Residual activity [5] was 3%.
